In patent US8455544B2, “Synthetic triterpenoids and methods of use in the treatment of disease” (Reata Pharmaecuticals, Inc., priority 2008, dated 2013):

Assays:
[1] = system: cisplatin-induced renal toxicity; assay: Rat cisplatin-induced acute renal injury; type: in vivo
Method: FIGS. 2a-c—RTA 402 reduces cisplatin-induced renal toxicity. Rats were administered RTA 402 at 10 mg/kg or simply the vehicle (sesame oil) every day by oral gavage beginning on Day −1. On Day 0, the rats received an intravenous injection of cisplatin at 6 mg/kg. Blood samples were drawn on the indicated days and the levels of creatinine (FIG. 2a) and blood urea nitrogen (BUN) (FIG. 2b) were measured as markers of renal damage. A statistically significant difference was observed between the vehicle-treated and RTA 402-treated groups on Day 3 (creatinine) and Day 5 (creatinine and BUN). (FIG. 2c) Less damage to the proximal tubules is observed in RTA 402-treated animals compared to vehicle-treated animals.
In another model of acute renal injury, rats were injected intravenously with the antineoplastic agent cisplatin. In humans, nephrotoxicity is a dose-limiting side effect of treatment with cisplatin. Cisplatin-induced damage to the proximal tubules is thought to be mediated by increased inflammation, oxidative stress, and apoptosis (Yao et al., 2007). Rats treated with a single dose of cisplatin at 6 mg/kg developed renal insufficiency as measured by increased blood levels of creatinine and BUN.

[2] = system: patients with pancreatic cancer; assay: Study of RTA 402 in combination with gemcitabine in patients with pancreatic cancer: eGFR; type: in vivo, human; parameters: unit not given here
Method: FIG. 5—RTA 402 increases GFR in human patients with cancer. Estimated glomerular filtration rate (eGFR) was measured in RTA 402-treated patients enrolled in a multi-month clinical trial for the treatment of cancer. All patients (n=11) dosed through six months were included in the analysis. The dosing information for these patients is provided in Example 5, below.
Some of these patients were enrolled in the Phase I study, whereas others were enrolled in a study of RTA 402 (in combination with gemcitabine) in patients with pancreatic cancer.

[3] = system: circulating endothelial cells (CECs); assay: Circulating endothelial cells (CECs) and iNOS-positive CECs, Phase II study; type: in vivo, human
Text: The mean number of CECs in cells/mL is shown for intent-to-treat (ITT) and elevated baseline groups, both before and after the 28 day RTA treatment. The reduction for the Intent-to-treat group was approximately 20%, and the reduction in the elevated baseline group (>5 CECs/ml) was approximately 33%. The fraction of iNOS-positive CECs was reduced approximately 29%.
CECs were isolated from whole blood by using CD146 Ab (an antibody to the CD146 antigen that is expressed on endothelial cells and leukocytes). After CEC isolation, a FITC (fluorescein isothiocyanate) conjugated CD105 Ab (a specific antibody for endothelial cells) is used to identify CECs using the CellSearch™ system. A fluorescent conjugate of CD45 Ab was added to stain the leukocytes, and these were then gated out. For a general overview of this method, see Blann et al., (2005), which is incorporated herein by reference in its entirety. CEC samples were also assessed for the presence of iNOS by immunostaining.

[4] = 10 mg/kg oral gavage daily from one day prior to cisplatin 6 mg/kg i.v.

COC(=O)[C@]12CCC(C)(C)C[C@H]1[C@H]1C(=O)C=C3[C@@]4(C)C=C(C#N)C(=O)C(C)(C)[C@@H]4CC[C@@]3(C)[C@]1(C)CC2 [RTA 402, methyl-2-cyano-3,12-dioxooleana-1,9-dien-28-oic acid]
Extent of proximal tubule damage (histological evaluation) compared to vehicle ([1]; 10 mg/kg oral gavage daily): improvement | Blood levels of BUN [1, 4]: significantly reduced | Blood levels of creatinine [1, 4]: significantly reduced | eGFR ([2]; Pt 1001, dose 150 mg, cycle 1, BL 68.8): 78.9 | eGFR ([2]; Pt 1001, dose 150 mg, cycle 2, BL 68.8): 109.9 | eGFR ([2]; Pt 1001, dose 150 mg, cycle 3, BL 68.8): 135.7 | eGFR ([2]; Pt 1001, dose 150 mg, cycle 4, BL 68.8): 175.5 | eGFR ([2]; Pt 1001, dose 150 mg, cycle 5, BL 68.8): 175.5 | eGFR ([2]; Pt 1001, dose 150 mg, cycle 6, BL 68.8): 135.7 | eGFR ([2]; Pt 1104, dose 300/150 mg, cycle 1, BL 67.3): 95.7 | eGFR ([2]; Pt 1104, dose 300/150 mg, cycle 2, BL 67.3): 71.6 | eGFR ([2]; Pt 1104, dose 300/150 mg, cycle 3, BL 67.3): 141.2 | eGFR ([2]; Pt 1104, dose 300/150 mg, cycle 4, BL 67.3): 95.7 | eGFR ([2]; Pt 1104, dose 300/150 mg, cycle 5, BL 67.3): 114.4 | eGFR ([2]; Pt 1104, dose 300/150 mg, cycle 6, BL 67.3): 114.4 | eGFR ([2]; Pt 1105, dose 300 mg, cycle 1, BL 82.4): 106.6 | eGFR ([2]; Pt 1105, dose 300 mg, cycle 2, BL 82.4): 89.3 | eGFR ([2]; Pt 1105, dose 300 mg, cycle 3, BL 82.4): 106.6 | eGFR ([2]; Pt 1105, dose 300 mg, cycle 4, BL 82.4): 106.6 | eGFR ([2]; Pt 1105, dose 300 mg, cycle 5, BL 82.4): 131.6 | eGFR ([2]; Pt 1105, dose 300 mg, cycle 6, BL 82.4): 170.3 | eGFR ([2]; Pt 1106, dose 300 mg, cycle 1, BL 89.0): 106.3 | eGFR ([2]; Pt 1106, dose 300 mg, cycle 2, BL 89.0): 106.3 | eGFR ([2]; Pt 1106, dose 300 mg, cycle 3, BL 89.0): 106.3 | eGFR ([2]; Pt 1106, dose 300 mg, cycle 4, BL 89.0): 131.2 | eGFR ([2]; Pt 1106, dose 300 mg, cycle 5, BL 89.0): 131.2 | eGFR ([2]; Pt 1106, dose 300 mg, cycle 6, BL 89.0): 131.2 | Reduction of mean number of CECs ([3]; 28 days, elevated baseline group (>5 CECs/ml)): approximately 33% | Reduction in CECs ([3]; 28 days, elevated baseline group, n=14, p=0.02): 40% | Reduction of the fraction of iNOS-positive CECs ([3]; 28 days, immunostaining): approximately 29% | Reduction of mean number of CECs ([3]; 28 days, intent-to-treat group): approximately 20% | Reduction in CECs ([3]; 28 days, intent-to-treat group, n=20): 27% | Patients with a normal level for CECs post-treatment ([3]; of the elevated baseline group, n=14): nine | Normalization of CEC values (≦5 cells/mL), patients ([3]; patients with elevated baseline): 11 out of the 19
